Experimental data reported in patent publication US20060014712A1, “Controlled delivery of therapeutic compounds” (CeMines, Inc., priority 2004, published 2006).

Legend:
[1] = test system: Human keratinocytes; assay: Cell counting after 7 day peptide treatment; type: cell-based; details: keratinocyte, modified peptides, conc 10 µM, start count 10
Description: (§1) Methods. Human melanoma cell lines SK-MEL-28 and WM 266-4 were obtained from the American Tissue Culture Collection (ATCC) and were cultured according to recommendations of ATCC (DMEM, 10% FCS, penicillin+streptomycin). Human keratinocytes were obtained from Clonetics and cultured according to manufacturers protocol. Cells were used in experiments after two passages in the laboratory. Cells were grown in 24 well plates, each treatment in triplicates. Cells were plated 16 hours prior treatments started. Peptides were added to the media, and media was changed every day during 7 day experiment. CPP concentration was 10 μM. For cell counting, cells were trypsinized (0.25% Trypsin, 2 mM EDTA) in Ca, Mg free PBS. Cells were precipitated and resuspended in 100 μl of PBS, and 5 μl were removed for counting.

[2] = test system: Human keratinocytes; assay: WST-1 test (mitochondrial activity); type: cell-based; details: keratinocyte; modified peptides; conc 10 µM; untreated = 1
Description: as §1, with “[…] WST-1 test” for “CPP concentration”, “performed to measure mitochondrial activity, which can also be used as a measure of” for “10 μM. For”, “number.” for “counting, cells were trypsinized (0.25% Trypsin, 2 mM EDTA) in Ca, Mg free PBS. Cells were precipitated and resuspended in 100 μl of PBS, and 5 μl were removed for counting.”

[3] = test system: Human keratinocytes; assay: Apoptosis, Annexin V-Cy3 Apoptosis Kit; type: cell-based; details: keratinocyte, modified peptides, conc 10 µM
[4] = test system: B16 melanoma; assay: Mouse tumor xenograft model, peptide membrane patch on skin melanoma; type: in vivo; details: patch immersed in 100 μM peptide solution, start = 100
Description: The effect of modified mimicking peptides was analyzed by inducing melanomas in mouse skin by grafting suspension of melanoma cells. […] Tumor diameter was measured 1, 2, 3, 5, 7 days after treatmet started.
Methods. Mouse melanoma cell line B16 was cultured as described above, and approximately 5×10^6 cells were injected subcutaneously into the left and right limbs of three C57BL/6JOIaHsd mice.
Administration. Cellulose membrane was immersed in a solution of peptides (100 μM). Size of tumor was measured 1, 2, 3, 5 and 7 days following patch treatment. At the same time new patch was applied. All experiments were done in triplicates (3 animals per group).

[5] = test system: B16; assay: Cell counting after 7 day peptide treatment; type: cell-based, mouse; details: CPP mimicking peptides, conc 10 µM, start count 10
Description: The ability to block interaction of MITF, SOX10 and STAT3 with active transcriptional complex and inhibit proliferation and stimulate apoptosis of melanoma cells were tested on human melanoma cell lines SK-MEL-28 and WM 266-4, and mouse melanoma cell line B16. Methods. Human melanoma cell lines SK-MEL-28 and WM 2664 and mouse melanoma cell line B16 were obtained from the American Tissue Culture Collection (ATCC). Cells were cultured according to recommendations of ATCC (DMEM, 10% FCS, penicillin+streptomycin) and used in experiments after two passages in the laboratory. Cells were grown in 24 well plates, each treatment in triplicates. Cells were plated 16 hours prior treatments started. Peptides were added to the media, and media was changed every day during 7 day experiment. […] Cells were precipitated and resuspended in 100 μl of PBS, and 5 μl were removed for counting

[6] = test system: B16; assay: WST-1 test (mitochondrial activity); type: cell-based, mouse; details: CPP mimicking peptides, conc 10 µM, untreated = 1
Description: Methods. Human melanoma cell lines SK-MEL-28 and WM 2664 and mouse melanoma cell line B16 were obtained from the American Tissue Culture Collection (ATCC). Cells were cultured according to recommendations of ATCC (DMEM, 10% FCS, penicillin+streptomycin) and used in experiments after two passages in the laboratory. Cells were grown in 24 well plates, each treatment in triplicates. Cells were plated 16 hours prior treatments started. Peptides were added to the media, and media was changed every day during 7 day experiment. […]

[7] = test system: Dct/Trp2 promoter; assay: Transient CAT assay, Dct/Trp2 proximal promoter-CAT construct in SK-MEL-28; type: cell-based, human; details: CPP concentration 10 μM
Description: (§2) SOX10 and MITF interact with the proximal promoter of Dct/Trp2 gene and induces its activity (Ludwig A. et al., FEBS Lett. 556 (1-3):236-244 (2004)). Thus, a Dct/Trp2 proximal promoter reporter construct was used to analyze effect of mimicking peptides on promoter activity using transient CAT assay.
(§3) Methods. Human melanoma cell lines SK-MEL-28 and WM 266-4 were obtained from the American Tissue Culture Collection (ATCC) and were cultured according to recommendations of ATCC (DMEM, 10% FCS, penicillin+streptomycin). Dct/Trp2 proximal promoter-CAT construct (Ludwig et al., supra) was used in all experiments.
(§4) Cells were transfected by using FuGene reagent (Roche Molecular Biochemicals) according to manufacturer's instructions. Freeze-thaw lysates of cells collected 48 h after the transfection were assayed for CAT activity as described (Pothier, F. et al., DNA Cell Biol. 11(1):83-90 (1992)). At least two different DNA preparations were tested for each plasmid. To normalize the transfection efficiencies, cells were cotransfected with pON260 expressing β-galactosidase (Spaete, R. R. and Mocarski, E. S., J. Virol. 54(3):817-24 (1985); Spaete, R. R. and Mocarski, E. S., J. Virol. 56(1):13543 (1985)). All the CAT activities were normalized to total protein and β-galatosidase activity.
(§5) Following transfection, cells were grown in 6 well plates, each treatment in triplicates. Peptides were added to the media and media was changed every day during the 7 day experiment. CPP concentration was 10 μM.

[8] = test system: Dct/Trp2 promoter; assay: Transient CAT assay, Dct/Trp2 proximal promoter-CAT construct in WM 266-4; type: cell-based, human; details: CPP concentration 10 μM
Description: as §2, §3, §4, §5

Sequence | Cell Count 7 d [1] | WST-1 7 d [2] | Apoptosis 7 d/% [3] | tumor size change (%) 1 d ([4]; 1 d, B16 s.c. in C57BL/6 mice) | tumor size change (%) 2 d ([4]; 2 d) | tumor size change (%) 3 d ([4]; 3 d) | tumor size change (%) 5 d ([4]; 5 d) | tumor size change (%) 7 d ([4]; 7 d) | Cell Count 7 d [5] | WST-1 7 d [6] | Dct/Trp2 promoter activity (CAT assay) [7] | Dct/Trp2 promoter activity (CAT assay) [8]
TTGGSSPQGLEAKRPKKRKVRRRFNINDRIKELGTLIPKSNDPDMRWN [MITF-int1M] | 38 | 0.93 | 5% | 112% | 135% | 150% | 170% | 210% |  |  |  | 
RPKKRKVRRRVKRPMNAFMVWAQAARRKLADQY [SOX10-int1] |  |  |  |  |  |  |  |  | 72 | 0.88 | suppress Dct/Trp2 promoter activity significantly | suppress Dct/Trp2 promoter activity significantly
RPKKRKVRRRFNINDRIKELGTLIPKSNDPDMRWN [MITF-int1] |  |  |  |  |  |  |  |  | 63 |  | suppress Dct/Trp2 promoter activity significantly | suppress Dct/Trp2 promoter activity significantly
